Among the data in patent US7199147B2, “Rho kinase inhibitors” (Dainippon Sumitomo Pharma Co., Ltd., priority 2001, dated 2007) are melting point values, retold here.

Structures can show the parent of a compound that is named as a salt.

As usually defined, the melting point is the temperature, or range, at which the solid turns liquid. As for `c1ccc(CN2CCC(CCNc3ccc4[nH]ncc4c3)CC2)cc1`, the melting point fell in the range of 117 to 118 °C.
Consider `COc1c(OS(C)(=O)=O)ccc2[nH]ncc12` (as salt: methanesulfonate), for which the melting point lay within 130 to 131 °C.
`CCS(=O)(=O)N1CCC(Nc2ccc3[nH]ncc3c2)CC1`: the melting point lay in the range of 182 to 183 °C.
The same measure for `c1ccc(CN2CCC(Nc3ccc4oncc4c3)CC2)cc1`: 89 to 90 °C; for `O=C(Nc1ccc2[nH]ncc2c1)C1CCOCC1`: 286 to 288 °C (dec.); for `CN(CCCNc1ccc2[nH]ncc2c1)Cc1ccccc1`: 112 to 114 °C.
The same measure for `O=S(=O)(Nc1ccc2[nH]ncc2c1)C1CCNCC1`: 120 to 123 °C; for `Cn1cc2cc(NC3CCN(Cc4ccccc4)CC3)ccc2n1`: 108 to 110 °C.
In the case of `CN(CCC(=O)Nc1ccc2[nH]ncc2c1)Cc1ccccc1`, the melting point was in the range of 140 to 141 °C.
`CN(c1ccc2[nH]ncc2c1)C1CCN(Cc2ccccc2)CC1` displayed a melting point of 152 to 154 °C.
As for `Cc1n[nH]c2ccc(NC3CCNCC3)cc12`, the melting point fell in the range of 175 to 177 °C.
As for `O=C(NC1CCN(Cc2ccccc2)C1)c1ccc2[nH]ncc2c1` (stereo not shown), the melting point was 187 to 189 °C.
In turn, `c1cc2[nH]ncc2cc1OC1CCOCC1` [Example 365] registered a melting point of 151 to 153 °C.
The same measure for `N#Cc1cccc(COc2ccc3[nH]ncc3c2)c1`: 158 to 161 °C.
The compound `Cl.Cl.OCCN1C2CCC1CC(Nc1ccc3[nH]ncc3c1)C2` (stereo not shown) had a melting point of 154 to 157 °C.
The same measure for `c1cc2[nH]ncc2cc1OC1CCOCC1` [Example 44]: 151 to 152 °C; for `Cc1c(O[C@H]2CC[C@@H](NC3CCCC3)CC2)ccc2[nH]ncc12`: 153 to 155 °C.
In the case of `c1cc2[nH]ncc2cc1NCC1CCOCC1`, the melting point is 293 to 294 °C (dec.).
Turning to `Cl.Cl.c1ccc(CN2CCC(Nc3cccc4[nH]ncc34)CC2)cc1`, the melting point was 257 to 260 °C (dec.).
`CCCCC(=O)N[C@H]1CCC[C@@H](Oc2ccc3[nH]ncc3c2C)C1` (relative stereo): the melting point was in the range of 190 to 193 °C.
The same measure for `Cc1c(O[C@H]2CC[C@H](N)CC2)ccc2[nH]ncc12`: 150 to 152 °C.
The same measure for `Cc1c(O[C@H]2CCC[C@H](N)C2)ccc2[nH]ncc12` (relative stereo): 156 to 160 °C; for `c1cc2[nH]ncc2cc1OC1CCCN(C2CCCC2)CC1` (stereo not shown): 138 to 140 °C; for `OC1CCC(Oc2ccc3[nH]ncc3c2)C1` (stereo not shown): 147 to 148 °C.
With `Cc1n[nH]c2ccc(NC3CCN(Cc4ccccc4)CC3)cc12`, the melting point was 160 to 162 °C.
`CC(C)CCC(=O)Nc1ccc2[nH]ncc2c1`: the melting point was 215 to 216 °C (dec.).
The compound `c1cc2[nH]ncc2cc1OC1CCCC1` displayed a melting point of 141 to 142 °C.
On to `Cn1ncc2cc(NC3CCN(Cc4ccccc4)CC3)ccc21`, for which the melting point lay within 116 to 117 °C.
The same measure for `O=C(CCC(F)(F)F)Nc1ccc2[nH]ncc2c1`: 243 to 244 °C (dec.).
With `Cn1ncc2cc(NC3CCNCC3)ccc21`, the melting point is 111 to 113 °C.
`CCOC(=O)N1C2CCC1CC(Nc1ccc3[nH]ncc3c1)C2` (stereo not shown) registered a melting point of 158 to 159 °C.
